Measurements reported in the NIST ThermoML archive (doi:10.1021/je050540h).
Numbers after ± are expanded uncertainties.

How the values were obtained:
[1] = Liquid
[2] = xn = mol fraction of the nth substance listed; conditions: 101 kPa, Liquid, x2 = 0

| mass density ([1]; 293.15 K, 101 kPa) [kg/m3] | speed of sound ([1]; 293.15 K, 101 kPa) [m/s] | viscosity ([1]; 293.15 K, 101 kPa) [mPa·s] | mass density ([1]; 298.15 K, 101 kPa) [kg/m3] | speed of sound ([1]; 298.15 K, 101 kPa) [m/s] | viscosity ([1]; 298.15 K, 101 kPa) [mPa·s] | mass density ([1]; 303.15 K, 101 kPa) [kg/m3] | speed of sound ([1]; 303.15 K, 101 kPa) [m/s] | viscosity ([1]; 303.15 K, 101 kPa) [mPa·s] | mass density ([2]; 293.15 K) [kg/m3] | speed of sound ([2]; 293.15 K) [m/s] | viscosity ([2]; 293.15 K) [mPa·s] | mass density ([2]; 298.15 K) [kg/m3] | speed of sound ([2]; 298.15 K) [m/s] | viscosity ([2]; 298.15 K) [mPa·s] | mass density ([2]; 303.15 K) [kg/m3] | speed of sound ([2]; 303.15 K) [m/s] | viscosity ([2]; 303.15 K) [mPa·s] | Structure (SMILES) | other results |
| --- | --- | --- | --- | --- | --- | --- | --- | --- | --- | --- | --- | --- | --- | --- | --- | --- | --- | --- | --- |
| 809.04 ± 0.47 | 1250 ± 3 | 4.001 ± 0.093 | 805.01 ± 0.48 | 1232 ± 3 | 3.273 ± 0.077 | 800.9 ± 0.48 | 1214 ± 3 | 2.774 ± 0.066 |  |  |  |  |  |  |  |  |  | CCCC(C)O (stereo not drawn) [pentan-2-ol] | speed of sound ([1]; 293.15 K, 7 kPa): 1250 ± 3 m/s; speed of sound ([1]; 298.15 K, 7 kPa): 1232 ± 3 m/s; speed of sound ([1]; 303.15 K, 7 kPa): 1214 ± 3 m/s |
|  |  |  |  |  |  |  |  |  | 809.04 ± 0.47 | 1250 ± 3 | 4.001 ± 0.093 | 805.01 ± 0.48 | 1232 ± 3 | 3.273 ± 0.077 | 800.9 ± 0.48 | 1214 ± 3 | 2.774 ± 0.066 | CCCC(C)O (stereo not drawn) [pentan-2-ol] + C1CCCC1 |  |
| 785.07 ± 0.48 | 1156 ± 3 | 2.382 ± 0.056 | 780.87 ± 0.48 | 1139 ± 2 | 2.045 ± 0.049 | 776.6 ± 0.49 | 1121 ± 2 | 1.763 ± 0.043 |  |  |  |  |  |  |  |  |  | CC(C)O [propan-2-ol] |  |
|  |  |  |  |  |  |  |  |  | 785.07 ± 0.48 | 1156 ± 3 | 2.382 ± 0.056 | 780.87 ± 0.48 | 1139 ± 2 | 2.045 ± 0.049 | 776.6 ± 0.49 | 1121 ± 2 | 1.763 ± 0.043 | CC(C)O [propan-2-ol] + C1CCCC1 |  |
|  |  |  |  |  |  |  |  |  | 785.07 ± 0.48 | 1156 ± 3 | 2.382 ± 0.056 | 780.87 ± 0.48 | 1139 ± 2 | 2.045 ± 0.049 | 776.6 ± 0.49 | 1121 ± 2 | 1.763 ± 0.043 | CC(C)O [propan-2-ol] + C1CCCCC1 |  |
